Measured values published in patent publication US9976141B2, “Compositions and methods for inhibiting gene expression of Hif2alpha” (Arrowhead Madison Inc., priority 2015, dated 2018).

System: human (tumor) Hif2α (EPAS1) mRNA
Test: Hif2α knockdown in orthotopic RCC tumor bearing mice, single injection of RNAi trigger-delivery polymer conjugate, RT-qPCR (Table 7)
Format: in vivo
Conditions: single tail vein injection, relative to isotonic glucose
How it was run: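 Female athymic nude mice carried orthotopic A498-SEAP ccRCC kidney tumours, used 5–6 weeks after implantation. They received one tail-vein injection of RGD-targeted Hif2α RNAi trigger–polymer conjugate or isotonic glucose. Tumour Hif2α mRNA was measured by TaqMan RT-qPCR normalised to CycA (ΔΔCT) and expressed relative to glucose-treated mice.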

[1] = RNAi trigger 50 μg, polymer 064 125 μg

Substance | Relative Expression day 4 (Hif2α mRNA in kidney tumor) [1] | further results
AD01523 (antisense TUUCAUGAAAUCGUUACGUTT; sense ACGUAACGAUUUCAUGAAAT; Hif2alpha RNAi agent antisense strand; modified_base 2,4,6,8,10,13,14,16,18 /mod_base = “2′-deoxy-2′-fluoro corresponding nucleoside”; modified_base 3,5,7,9,11,12,15,17,19 /mod_base = “2′-O-methyl corresponding nucleoside”; modified_base 21 /mod_base = “5′-phosphorothioate corresponding nucleotide”; Hif2alpha RNAi agent sense strand; modified_base 1,3,5,8,9,11,13,15,17,19 /mod_base = “2′-deoxy-2′-fluoro corresponding nucleoside”; modified_base 2,4,6,7,10,12,14,16,18 /mod_base = “2′-O-methyl corresponding nucleoside”; modified_base 20 /mod_base = “3′-3′-linked nucleotide”; modified_base 1 /mo) |  | Relative Expression day 4 (Hif2α mRNA in kidney tumor) (RNAi trigger 115 μg, polymer 100A 375 μg): 0.49
AD01889 (antisense UCUAGCAACAAAACCUUAATT; sense UUAAGGUUUUGUUGCUAGAT; Hif2alpha RNAi agent antisense strand; modified_base 2,4,6,9,10,12,14,15,18 /mod_base = “2′-deoxy-2′-fluoro corresponding nucleoside”; modified_base 1,3,5,7,8,11,13,16,17,19 /mod_base = “2′-O-methyl corresponding nucleoside”; modified_base 2,3,21 /mod_base = “5′-phosphorothioate corresponding nucleotide”; Hif2alpha RNAi agent sense strand; modified_base 3,4,7,9,13,15,17 /mod_base = “2′-deoxy-2′-fluoro corresponding nucleoside”; modified_base 1,2,5,6,8,10,11,12,14,16,18,19 /mod_base = “2′-O-methyl corresponding nucleoside”; modified_base 20 /mod_base = “3′-3′-linked nucleotide”; modified_base) |  | Relative Expression day 4 (Hif2α mRNA in kidney tumor) (RNAi trigger 100 μg, polymer 064 250 μg): 0.282
AD02859 (antisense UUUCAUGAAAUCGUUACGUUG; sense ACGUAACGAUUUCAUGAAAT; Hif2alpha RNAi agent antisense strand; modified_base 2,4,6,8,14 /mod_base = “2′-deoxy-2′-fluoro corresponding nucleoside”; modified_base 1,3,5,7,9,10,11,12,13,15,16,17,18,19,20,21 /mod_base = “2′-O-methyl corresponding nucleoside”; modified_base 2,3,20,21 /mod_base = “5′-phosphorothioate corresponding nucleotide”; Hif2alpha RNAi agent sense strand; modified_base 7,8,9 /mod_base = “2′-deoxy-2′-fluoro corresponding nucleoside”; modified_base 1,2,3,4,5,6,10,11,12,13,14,15,16,17,18,19 /mod_base = “2′-O-methyl corresponding nucleoside”; modified_base 20 /mod_base = “3′-3′-linked nucleotide”; modi) | 0.214 | 
AD03255 (antisense UUUCAUGAAAUCGUUACGUUGAT; sense AACGUAACGAUUUCAUGAAAT; Hif2alpha RNAi agent antisense strand; modified_base 2,4,6,8,14 /mod_base = “2′-deoxy-2′-fluoro corresponding nucleoside”; modified_base 1,3,5,7,9,10,11,12,13,15,16,17,18,19,20,21,22 /mod_base = “2′-O-methyl corresponding nucleoside”; modified_base 23 /mod_base = “3′-3′-linked nucleotide”; modified_base 2,3,22,23 /mod_base = “5′-phosphorothioate corresponding nucleotide”; Hif2alpha RNAi agent sense strand; modified_base 8,9,10 /mod_base = “2′-deoxy-2′-fluoro corresponding nucleoside”; modified_base 1,2,3,4,5,6,7,11,12,13,14,15,16,17,18,19,20 /mod_base = “2′-O-methyl corresponding nucleoside”) | 0.264 | 
AD03259 (antisense AUUCAUGAAAUCGUUACGUTG; sense ACGUAACGAUUUCAUGAATT; Hif2alpha RNAi agent antisense strand; modified_base 2,8,10,14 /mod_base = “2′-deoxy-2′-fluoro corresponding nucleoside”; modified_base 1,3,4,5,6,7,9,11,12,13,15,16,17,18,19 /mod_base = “2′-O-methyl corresponding nucleoside”; modified_base 20,21 /mod_base = “2′-MOE nucleotide”; modified_base 2,3,20,21 /mod_base = “5′-phosphorothioate corresponding nucleotide”; Hif2alpha RNAi agent sense strand; modified_base 7,8,9 /mod_base = “2′-deoxy-2′-fluoro corresponding nucleoside”; modified_base 1,2,3,4,5,6,10,11,12,13,14,15,16,17 /mod_base = “2′-O-methyl corresponding nucleoside”; modified_base 20 /m) | 0.179 | 
AD02861 (antisense UUUCAUGAAAUCGUUACGUUG; sense UAUACGUAACGAUUUCAUGAAAT; Hif2alpha RNAi agent antisense strand; modified_base 2,4,6,8,10,14 /mod_base = “2′-deoxy-2′-fluoro corresponding nucleoside”; modified_base 1,3,5,7,9,11,12,13,15,16,17,18,19,20,21 /mod_base = “2′-O-methyl corresponding nucleoside”; modified_base 2,3,20,21 /mod_base = “5′-phosphorothioate corresponding nucleotide”; Hif2alpha RNAi agent sense strand; modified_base 2 modified base = “2′-hydroxy corresponding nucleoside”; modified_base 10,11,12 /mod_base = “2′-deoxy-2′-fluoro corresponding nucleoside”; modified_base 1,3,4,5,6,7,8,9,13,14,15,16,17,18,19,20,21,22 /mod_base = “2′-O-methyl correspon) | 0.103 | 
